Experimental findings from patent US8324245B2, “Quinoline derivative and quinazoline derivative inhibiting self-phosphorylation of hepatocytus proliferator receptor, and medicinal composition containing the same” (Kyowa Hakko Kirin Co., Ltd., priority 2001, dated 2012) are described below.

Assay [1] addresses T1, met (HGF receptor) in human epidermal cancer cells A431 (Homo sapiens, UniProt P08581).
T1 construct: endogenous in cells; host or cells: A431 human epidermal cancer cells
Kind of assay: Inhibitory activity against met-autophosphorylation using ELISA method (1), HGF-stimulated A431 cells. It counts as cell-based. The settings on record: HGF 50 ng/ml stimulation, read-out: IC50 (concentration necessary for inhibiting 50% of met phosphorylation). The method, then: Human epidermal cancer cells A431 were cultured in an RPMI 1640 medium containing 10% fetal calf serum (purchased from GIBCO BRL) within a 5% carbon dioxide incubator until 50 to 90% confluent. Cells were cultured with RPMI medium containing 0.1% fetal calf serum in 96-well flat-bottom plate in an amount of 3×10^4 per well, and were incubated at 37° C. overnight. The medium was then replaced by a fresh RPMI medium containing 0.1% fetal calf serum. A solution of the test compound in dimethyl sulfoxide was added to each well, and the cells were incubated at 37° C. for additional one hr. A human recombinant hepatocyte growth factor (hereinafter abbreviated to “HGF”) was added to a final concentration of 50 ng/ml, and the stimulation of cells was carried out at 37° C. for 5 min. The medium was removed, the cells were washed with phosphate buffered saline (pH 7.4), and 50 μl of lysis buffer (20 mM HEPES (pH 7.4), 150 mM NaCl, 0.2% Triton X-100, 10% glycerol, 5 mM sodium orthovanadylate, 5 mM disodium ethylenediaminetetraacetate, and 2 mM Na4P2O7) was then added thereto. […]
Separately, phosphate buffered saline (50 μl, pH 7.4) containing 5 μg/ml of anti-phospho-tyrosine antibody (PY20; purchased from Transduction Laboratories) was added to a microplate for ELISA (Maxisorp; purchased from NUNC), followed by gentle agitation at 4° C. overnight to coat the surface of the wells with the antibody. […] After washing, the whole quantity of the cell extract was transferred to the wells, and the plate was then allowed to incubate at 4° C. overnight. […] After a suitable level of color development, a reaction termination solution was added to stop the reaction, and the absorbance at 450 nm was measured with a microplate reader. The met-phosphorylation inhibitory activity for each well was determined by presuming the absorbance with the addition of HGF and the vehicle to compounds to be 0% met-phosphorylation inhibitory activity and the absorbance with the addition of the vehicle to compounds and without HGF to be 100% met phosphorylation inhibitory activity. […]
Background: An ELISA detects its analyte on a solid surface through an enzyme-linked reagent.

Assay [2] has as its target T2, met (HGF receptor) in human gastric cancer cells MKN45 (Homo sapiens, UniProt P08581).
T2 construct: endogenous in cells; host or cells: MKN45 human gastric cancer cells
In words: Inhibitory activity against met-autophosphorylation using ELISA method (2), MKN45 cells, HGF-independent. The assay is classed as cell-based. The method, boiled down:
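MKN45 cells, 3×10^4 per well in RPMI with 0.1% FCS overnight, were exposed to compound in DMSO for 1 h at 37 °C without HGF. Lysates were captured on anti-phosphotyrosine (PY20) plates, Met detected with anti-Met and peroxidase secondary antibody, absorbance at 450 nm.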

The subject of assay [3] is Human gastric cancer cells (MKN 45). In words: Tumor growth inhibitory activity against human gastric cancer cells (MKN 45) in nude mice. It counts as in vivo. The following applies: oral, twice a day for 5 days. On the procedure: Human gastric cancer cells (MKN 45) were transplanted into nude mice. […] The test compound suspended in 0.5% methylcellulose was orally administered twice a day for 5 days.
(§1) Only 0.5% methylcellulose was administered to the control group in the manner as in the test groups. The tumor growth inhibition rate (TGIR) was calculated as follows: The tumor growth inhibition rate (TGIR)=(1−TX/CX)×100 wherein CX represents the relative tumor volume at day X for the control group when the tumor volume at the day of the start of the administration was presumed to be 1; and TX represents the relative tumor volume for test compound administration groups.

The subject of assay [4] is Human brain tumor cells (U87MG). Kind of assay: Tumor growth inhibitory activity against human brain tumor cells (U87MG) in nude mice. The assay is classed as in vivo. The following applies: oral, twice a day for 5 days. On the procedure: Human brain tumor cells (U87MG) were transplanted into nude mice. […] The test compound suspended in 0.5% methylcellulose was orally administered twice a day for 5 days.
as §1

The subject of assay [5] is human pancreatic cancer cells (KP4). In words: Tumor growth inhibitory activity against various human tumor cells in nude mice: KP4. The assay is classed as in vivo. The following applies: KP-4, Oral, 5 days. The method, then: (§2) Human gastric cancer cells (MKN 45) (obtained from RIKEN), human brain tumor cells (U87MG) (obtained from ATCC), human pancreatic cancer cells (KP4) (obtained from RIKEN), human pancreatic cancer cells (SUIT-2) (obtained from National Kyushu Cancer Center), and human signet-ring type gastric cancer cells (NUGC-4) (obtained from RIKEN), or human lung cancer cells (LC6) (obtained from Central Laboratories for Experimental Animals) were transplanted into nude mice. […] The test compound suspended in 0.5% methylcellulose was orally administered once or twice a day for 5 days. Only 0.5% methylcellulose was administered to the control group in the manner as in the test groups. Alternatively, the test compound dissolved in physiological saline (with a 1 N aqueous hydrochloric acid solution added thereto) was intraveneously injected once a day for 5 days, and only physiological saline (with a 1 N aqueous hydrochloric acid solution added thereto) was administered to the control group in the same manner as in the test groups. The tumor growth inhibition rate (TGIR) was calculated as follows: The tumor growth inhibition rate (TGIR)=(1−TX/CX)×100 wherein CX represents the relative tumor volume at the 5th day for the control group when the tumor volume at the day of the start of the administration was presumed to be 1; and TX represents the relative tumor volume for test compound administration groups.

In assay [6] the test system is human signet-ring type gastric cancer cells (NUGC-4). In words: Tumor growth inhibitory activity against various human tumor cells in nude mice: NUGC-4. The assay is classed as in vivo. The settings on record: NUGC-4, Oral, 30 × 2 mg/kg × number of times, 5 days. On the procedure:
as §2, with “Alternatively, the test compound dissolved in physiological saline (with a 1 N aqueous hydrochloric acid solution added thereto) was intraveneously injected once a day for 5 days, and only physiological saline (with a 1 N aqueous hydrochloric acid solution added thereto) was administered to the control group in the same manner as in the test groups.” left out

In assay [7] the test system is human lung cancer cells (LC6). Kind of assay: Tumor growth inhibitory activity against various human tumor cells in nude mice: LC6. It counts as in vivo. The settings on record: LC6, Oral, 30 × 2 mg/kg × number of times, 5 days. On the procedure: as §2
For assay [8], the system named is Human gastric cancer cells (MKN 45). In words: Tumor growth inhibitory activity against various human tumor cells in nude mice: MKN 45. It counts as in vivo. The following applies: Mus musculus, MKN-45, po, 120 h, MKN45, Oral, 5 days; read-out: TGIR. The method, then: as §2
In assay [9] the test system is Human brain tumor cells (U87MG). In words: Tumor growth inhibitory activity against various human tumor cells in nude mice: U87MG. The settings on record: Oral, 30 × 2 mg/kg × number of times, 5 days. It counts as in vivo. On the procedure: as §2
Assay [10] deals with human pancreatic cancer cells (SUIT-2). In words: Tumor growth inhibitory activity against various human tumor cells in nude mice: SUIT-2. It counts as in vivo. The following applies: SUIT-2, Oral, 25 × 1 mg/kg × number of times, 5 days. The method, then: as §2, with “Alternatively, the test compound dissolved in physiological saline (with a 1 N aqueous hydrochloric acid solution added thereto) was intraveneously injected once a day for 5 days, and only physiological saline (with a 1 N aqueous hydrochloric acid solution added thereto) was administered to the control group in the same manner as in the test groups.” left out

T1 sequence (P08581 25-1390): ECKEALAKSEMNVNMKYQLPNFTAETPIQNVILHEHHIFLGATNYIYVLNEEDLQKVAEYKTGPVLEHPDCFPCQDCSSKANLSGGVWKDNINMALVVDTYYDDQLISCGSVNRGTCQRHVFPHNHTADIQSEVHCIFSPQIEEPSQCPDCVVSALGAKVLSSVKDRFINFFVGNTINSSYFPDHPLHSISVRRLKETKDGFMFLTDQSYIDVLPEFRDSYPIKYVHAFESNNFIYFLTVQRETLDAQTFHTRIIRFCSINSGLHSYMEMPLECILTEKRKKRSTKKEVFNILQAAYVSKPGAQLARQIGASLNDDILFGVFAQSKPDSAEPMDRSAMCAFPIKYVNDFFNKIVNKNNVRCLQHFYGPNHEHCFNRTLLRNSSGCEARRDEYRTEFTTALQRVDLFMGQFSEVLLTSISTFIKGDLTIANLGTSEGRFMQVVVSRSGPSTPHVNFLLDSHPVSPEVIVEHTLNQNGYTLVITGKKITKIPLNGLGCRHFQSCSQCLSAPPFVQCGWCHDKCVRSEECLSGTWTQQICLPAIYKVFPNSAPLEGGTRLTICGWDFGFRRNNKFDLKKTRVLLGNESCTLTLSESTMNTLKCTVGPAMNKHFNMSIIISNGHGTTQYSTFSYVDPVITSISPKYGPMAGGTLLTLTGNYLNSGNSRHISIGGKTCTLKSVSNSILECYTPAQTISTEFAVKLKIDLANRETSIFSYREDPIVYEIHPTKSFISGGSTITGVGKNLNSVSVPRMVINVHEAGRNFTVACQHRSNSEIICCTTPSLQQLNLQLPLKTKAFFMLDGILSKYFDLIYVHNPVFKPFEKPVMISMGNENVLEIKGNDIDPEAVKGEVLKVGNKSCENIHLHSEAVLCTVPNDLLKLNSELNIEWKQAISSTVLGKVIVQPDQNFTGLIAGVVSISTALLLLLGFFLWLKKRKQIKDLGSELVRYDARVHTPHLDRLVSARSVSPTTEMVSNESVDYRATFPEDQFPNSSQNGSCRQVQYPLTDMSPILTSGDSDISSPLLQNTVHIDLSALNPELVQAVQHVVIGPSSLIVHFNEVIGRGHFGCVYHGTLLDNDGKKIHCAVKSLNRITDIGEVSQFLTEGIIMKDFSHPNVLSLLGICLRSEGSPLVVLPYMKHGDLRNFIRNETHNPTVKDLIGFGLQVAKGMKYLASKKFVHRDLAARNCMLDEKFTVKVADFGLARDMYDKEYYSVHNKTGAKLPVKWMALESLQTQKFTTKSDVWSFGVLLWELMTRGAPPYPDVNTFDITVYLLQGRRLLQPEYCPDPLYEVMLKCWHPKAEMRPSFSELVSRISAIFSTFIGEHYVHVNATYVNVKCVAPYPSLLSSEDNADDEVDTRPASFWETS
T2 sequence (P08581 25-1390): as above

With `COc1cc2nccc(Oc3ccc(NC(=S)NC(=O)Cc4ccc(F)cc4)cc3F)c2cc1OC` [Example 2, N-[4-(6,7-dimethoxyquinolin-4-yloxy)-3-fluoro-phenyl]-N′-[2-(4-fluorophenyl)acetyl]thiourea], the IC50 in [1] is 11.8 nM; in assay [2], 18.1 nM. The “TGIR (tumor growth inhibition rate)” value in assay [3] (dose 10 mg/kg/time) was found to be 31%; in assay [3] (dose 30 mg/kg/time), 65%. Besides, the TGIR in [4] (10 mg/kg/time) turned out to be 38%; in [4] (30 mg/kg/time) it was 61%; in [5] (30 × 2 mg/kg × number of times), 54%; in assay [6] it was 75%; in assay [7], 27%.
As to `COc1cc2nccc(Oc3ccc(NC(=O)NC(=O)Cc4ccc(F)cc4)c(F)c3)c2cc1OC` [Example 3, N-[4-(6,7-dimethoxyquinolin-4-yloxy)-2-fluoro-phenyl]-N′-[2-(4-fluorophenyl)acetyl]urea], the values for the IC50 in assay [1] and in assay [2] were 19.7 nM and 30.4 nM, respectively. Further, the “TGIR (tumor growth inhibition rate)” value is listed as 24% in assay [3] (dose 10 mg/kg/time) and 52% in [3] (dose 30 mg/kg/time). Besides, the TGIR in assay [4] (30 mg/kg/time) is given as 51%; in [4] (100 mg/kg/time), 60%; in assay [5] (30 × 2 mg/kg × number of times), 31%; in assay [6], 71%; in [7], 18%.
Regarding `COc1cc2c(Oc3ccc(NC(=O)NC(=O)Cc4ccccc4)cc3F)ccnc2cc1OCCCN1CCOCC1` [Example 11, 1-{3-fluoro-4-[6-methoxy-7-(3-morpholin-4-yl-propoxy)quinolin-4-yloxy]phenyl}-3-phenylacetylurea], the figures for the IC50 in assay [1] and in [2] were 58.1 nM and 20.2 nM, respectively. The “TGIR (tumor growth inhibition rate)” value in assay [3] (dose 10 mg/kg/time) is reported as 23%; in [3] (dose 30 mg/kg/time), 52%. Moreover, the inhibition in vivo at 30 mg/kg in [8] stood at 63%. For the same molecule, the results for the TGIR in assay [9] and in assay [7] were 62% and 26%, respectively.
In assay [2], `COc1cc2c(Oc3ccc(NC(=S)NC(=O)Cc4ccccc4)cc3F)ccnc2cc1OCCCN1CCOCC1` [Example 268, N-{3-fluoro-4-[6-methoxy-7-(3-morpholin-4-yl-propoxy)quinolin-4-yloxy]phenyl}-N′-phenylacetyl-thiourea] had an IC50 of 22.8 nM. For the same molecule, the “TGIR (tumor growth inhibition rate)” value in assay [3] (dose 30 mg/kg/time) is listed as 81%. Besides, the TGIR is recorded as 74% in [9] and 35% in [7].
Molecule `COc1cc2c(Oc3ccc(NC(=S)NC(=O)Cc4ccccc4Cl)cc3F)ccnc2cc1OCCCN1CCOCC1` [Example 285, 1-[2-(2-Chloro-phenyl)-acetyl]-3-{3-fluoro-4-[6-methoxy-7-(3-morpholin-4-yl-propoxy)-quinolin-4-yloxy]-phenyl}-thiourea] had an IC50 in assay [2] of 75.3 nM. For the same molecule, the inhibition in vivo at 30 mg/kg in assay [8] amounted to 66%. Besides, the TGIR in [7] came to 48%.
On to `COc1cc2c(Oc3ccc(NC(=O)NC(=O)Cc4ccc(F)cc4)c(F)c3)ccnc2cc1OCCCN1CCOCC1` [Example 286, 1-{2-Fluoro-4-[6-methoxy-7-(3-morpholin-4-yl-propoxy)-quinolin-4-yloxy]-phenyl}-3-[2-(4-fluoro-phenyl)-acetyl]-urea], for which the IC50 in assay [2] turned out to be 29.3 nM. Also, in [8], the inhibition in vivo at 30 mg/kg came to 64%. Moreover, the TGIR in [9] stood at 66%; in assay [7], 37%.
For the molecule `COc1cc2c(Oc3ccc(NC(=S)NC(=O)Cc4ccc(F)cc4)cc3F)ccnc2cc1OCC(O)CN1CCOCC1` (centres unmarked) [Example 313, 1-{3-Fluoro-4-[7-(2-hydroxy-3-morpholin-4-yl-propoxy)-6-methoxy-quinolin-4-yloxy]-phenyl}-3-[2-(4-fluorophenyl)-acetyl]-thiourea], the IC50 in assay [2] was found to be 21.1 nM. Moreover, the TGIR in [5] (12.5 × 1 mg/kg × number of times) came to 34%; in [5] (25 × 1 mg/kg × number of times) it was 45%; in assay [5] (50 × 1 mg/kg × number of times), 48%; in assay [10], 28%.
